Results taken from US20130150325A1, “3-(Fluorovinyl)pyrazoles and their use” (BAYER INTELLECTUAL PROPERTY GMBH, priority 2011, published 2013).

test system: HCT 116 cells transfected with a luciferase reporter under the control of an HIF-responsive sequence; test: HIF-luciferase assay; assay type: cell-based; details: Homo sapiens; HCT 116 HIF-luciferase reporter cells, hypoxia chamber (1% O2), 24 h; in some cases means of up to four individual determinations
Description: HCT 116 cells were transfected in a stable manner with a plasmid which contained a luciferase reporter under the control of an HIF-responsive sequence. These cells were sown in microtitre plates [20 000 cells/cavity in RPMI 1640 medium with 10% foetal calf serum (FCS) and 100 μg/ml of hygromycin]. Incubation was carried out overnight under standard conditions (5% CO2, 21% O2, 37° C., moistened). The following morning the cells were incubated with various concentrations of the test substances (0-10 μmol/l) in a hypoxia chamber (1% O2). After 24 h, Bright Glo reagent (Promega, Wisconsin, USA) was added in accordance with the manufacturer's instructions, and after 5 min the luminescence was measured. Cells which were incubated under normoxia served as background controls.
The IC50 values from this assay for representative working examples are listed in the following table (in same cases as means of up to four individual determinations): […]

| IC50 | SMILES |
| --- | --- |
| 0.2 nM | Cc1cc(/C(F)=C/c2ccc(C3(C(F)(F)F)CC3)cc2)nn1Cc1cccc(N2CCC(C#N)CC2)c1 [Example 11, 1-[3-({3-[(Z)-1-Fluoro-2-{4-[1-(trifluoromethyl)cyclopropyl]phenyl}vinyl]-5-methyl-1H-pyrazol-1-yl}methyl)phenyl]piperidine-4-carbonitrile] |
| 1 nM | Cc1cc(/C(F)=C/c2ccc(C(C)(C)C)cc2)nn1Cc1ccnc(N2CCN(CC(F)(F)F)CC2)c1 [Example 110, 1-[4-({3-[(Z)-2-(4-tert-Butylphenyl)-1-fluorovinyl]-5-methyl-1H-pyrazol-1-yl}methyl)pyridin-2-yl]-4-(2,2,2-trifluoroethyl)piperazine] |
| 2 nM | CC(=O)OC1(c2cccc(Cn3nc(/C(F)=C/c4ccc(OC(F)(F)F)cc4)cc3C)c2)CC1 [Example 43, 1-{3-[(3-{(Z)-1-Fluoro-2-[4-(trifluoromethoxy)phenyl]vinyl}-5-methyl-1H-pyrazol-1-yl)methyl]phenyl}cyclopropyl acetate] |
| 3 nM | Cc1cc(/C(F)=C/c2ccc(C(O)(C(F)(F)F)C(F)(F)F)cc2)nn1Cc1ccnc(N2CCN(C3CC3)CC2)c1 [Example 108, 2-{4-[(Z)-2-(1-{[2-(4-Cyclopropylpiperazin-1-yl)pyridin-4-yl]methyl}-5-methyl-1H-pyrazol-3-yl)-2-fluorovinyl]phenyl}-1,1,1,3,3,3-hexafluoropropan-2-ol] |
| 4 nM | Cc1cc(/C(F)=C/c2ccc(SC(F)(F)F)cc2)nn1Cc1cccc(C(=O)N2CCN(C3CC3)CC2)c1 [Example 38, (4-Cyclopropylpiperazin-1-yl)[3-({3-[(Z)-1-fluoro-2-{4-[(trifluoromethyl)sulphanyl]phenyl}vinyl]-5-methyl-1H-pyrazol-1-yl}methyl)phenyl]methanone] |
| 0.7 nM | CNc1ccc(Cn2nc(/C(F)=C/c3ccc(C(C)(C)C)cc3)cc2C)cn1 [Example 87, 5-({3-[(Z)-2-(4-tert-Butylphenyl)-1-fluorovinyl]-5-methyl-1H-pyrazol-1-yl}methyl)-N-methylpyridine-2-amine] |
| 3 nM | Cc1cc(/C(F)=C/c2ccc(C(F)(F)F)cc2)nn1Cc1cccc(C(=O)N2CCN(C3CC3)CC2)c1 [Example 41, (4-Cyclopropylpiperazin-1-yl) {3-[(3-{(Z)-1-fluoro-2-[4-(trifluoromethyl)phenyl]vinyl}-5-methyl-1H-pyrazol-1-yl)methyl]phenyl}methanone] |
| 0.5 nM | Cc1cc(/C(F)=C/c2ccc(OC(F)(F)F)cc2)nn1Cc1ccnc(N2CCN(C3CC3)CC2)c1 [Example 102, 1-Cyclopropyl-4-{4-[(3-{(Z)-1-fluoro-2-[4-(trifluoromethoxy)phenyl]vinyl}-5-methyl-1H-pyrazol-1-yl)methyl]pyridin-2-yl}piperazine] |
| 1 nM | CNc1ccc(Cn2nc(/C(F)=C/c3ccc(CN(C(C)C)C(C)C)cc3)cc2C)cn1 [Example 94, 5-({3-[(Z)-2-{4-[(Diisopropylamino)methyl]phenyl}-1-fluorovinyl]-5-methyl-1H-pyrazol-1-yl}-methyl)-N-methylpyridine-2-amine] |
| 1 nM | Cc1cc(/C(F)=C/c2ccc(C(C)(C)C(F)(F)F)c(F)c2)nn1Cc1cccc(C2(O)CC2)c1 [Example 50, 1-{3-[(3-{(Z)-1-Fluoro-2-[3-fluoro-4-(1,1,1-trifluoro-2-methylpropan-2-yl)phenyl]vinyl}-5-methyl-1H-pyrazol-1-yl)methyl]phenyl}cyclopropanol] |
| 2 nM | Cc1cc(/C(F)=C/c2ccc(OC(F)(F)F)cc2)nn1Cc1cccc(C2(O)CC2)c1 [Example 48, 1-{3-[(3-{(Z)-1-Fluoro-2-[4-(trifluoromethoxy)phenyl]vinyl}-5-methyl-1H-pyrazol-1-yl)methyl]-phenyl}cyclopropanol] |
| 2 nM | Cc1cc(/C(F)=C/c2ccc(C(C)(C)C(F)(F)F)cc2)nn1Cc1cccc(C(=O)N2CCN(C3CC3)CC2)c1 [Example 39, (4-Cyclopropylpiperazin-1-yl) {3-[(3-{(Z)-1-fluoro-2-[4-(1,1,1-trifluoro-2-methylpropan-2-yl)-phenyl]vinyl}-5-methyl-1H-pyrazol-1-yl)methyl]phenyl}methanone] |
| 20 nM | Cc1cc(/C=C(\F)c2ccc(OC(F)(F)F)cc2)nn1Cc1ccnc(N2CCN(C3CC3)CC2)c1 [Example 120, 1-Cyclopropyl-4-{4-[(3-{(Z)-2-fluoro-2-[4-(trifluoromethoxy)phenyl]vinyl}-5-methyl-1H-pyrazol-1-yl)methyl]pyridin-2-yl}piperazine] |
| 1 nM | Cc1cc(/C(F)=C/c2ccc(C(C)(C)C)cc2)nn1Cc1cccc(C2(O)CC2)c1 [Example 52, 1-[3-({3-[(Z)-2-(4-tert-Butylphenyl)-1-fluorovinyl]-5-methyl-1H-pyrazol-1-yl}methyl)phenyl]-cyclopropanol] |
| 40 nM | Cc1cc(/C=C(\F)c2ccc(OC(F)(F)F)cc2)nn1Cc1cccc(C(C)(C)O)c1 [Example 121, 2-{3-[(3-{(Z)-2-Fluoro-2-[4-(trifluoromethoxy)phenyl]vinyl}-5-methyl-1H-pyrazol-1-yl)methyl]phenyl}propan-2-ol] |
| 0.4 nM | Cc1cc(/C(F)=C/c2ccc(OC(F)(F)F)cc2)nn1Cc1cccc(N2CCC(C#N)CC2)c1 [Example 9, 1-{3-[(3-{(Z)-1-Fluoro-2-[4-(trifluoromethoxy)phenyl]vinyl}-5-methyl-1H-pyrazol-1-yl)-methyl]phenyl}piperidine-4-carbonitrile] |
| 2 nM | Cc1cc(/C(F)=C/c2ccc(C3(C(F)(F)F)CC3)cc2)nn1Cc1cccc(C(=O)N2CCN(C3CC3)CC2)c1 [Example 40, (4-Cyclopropylpiperazin-1-yl)[3-({3-[(Z)-1-fluoro-2-{4-[1-(trifluoromethyl)cyclopropyl]phenyl}-vinyl]-5-methyl-1H-pyrazol-1-yl}methyl)phenyl]methanone] |
| 2 nM | Cc1cc(/C(F)=C/c2ccc(SC(F)(F)F)cc2)nn1Cc1cccc(C2(CO)CC2)c1 [Example 56, {1-[3-({3-[(Z)-1-Fluoro-2-{4-[(trifluoromethyl)sulphanyl]phenyl}vinyl]-5-methyl-1H-pyrazol-1-yl}methyl)phenyl]cyclopropyl}methanol] |
| 4 nM | Cc1cc(/C(F)=C/c2ccc(OC(F)(F)F)cc2)nn1Cc1cccc(C(C)(C)O)c1 [Example 53, 2-{3-[(3-{(Z)-1-Fluoro-2-[4-(trifluoromethoxy)phenyl]vinyl}-5-methyl-1H-pyrazol-1-yl)methyl]-phenyl}propan-2-ol] |
| 5 nM | Cc1cc(/C(F)=C/c2ccc(C3(C(F)(F)F)CC3)cc2)nn1Cc1cccc(C(=O)N2CCCC2)c1 [Example 29, [3-({3-[(Z)-1-Fluoro-2-{4-[1-(trifluoromethyl)cyclopropyl]phenyl}vinyl]-5-methyl-1H-pyrazol-1-yl}methyl)phenyl](pyrrolidin-1-yl)methanone] |
| 4 nM | CNc1ccc(Cn2nc(/C(F)=C/c3ccc(C(F)(F)F)cc3)cc2C)cn1 [Example 85, 5-[(3-{(Z)-1-Fluoro-2-[4-(trifluoromethyl)phenyl]vinyl}-5-methyl-1H-pyrazol-1-yl)methyl]-N-methylpyridine-2-amine] |
| 4 nM | Cc1cc(/C=C(\F)c2ccc(OC(F)(F)F)cc2)nn1Cc1cccc(N2CC(O)C2)c1 [Example 113, 1-{3-[(3-{(Z)-2-Fluoro-2-[4-(trifluoromethoxy)phenyl]vinyl}-5-methyl-1H-pyrazol-1-yl)methyl]-phenyl}azetidin-3-ol] |
| 0.6 nM | CNc1ccc(Cn2nc(/C(F)=C/c3ccc(N4CC(C)OC(C)C4)nc3)cc2C)cn1 (centres unmarked) [Example 95, 5-[(3-{(Z)-2-[6-(2,6-Dimethylmorpholin-4-yl)pyridin-3-yl]-1-fluorovinyl}-5-methyl-1H-pyrazol-1-yl)methyl]-N-methylpyridine-2-amine] |
| 2 nM | Cc1cc(/C(F)=C/c2ccc(C3(C(F)(F)F)CC3)cc2)nn1Cc1cccc(C2(CO)CC2)c1 [Example 59, {1-[3-({3-[(Z)-1-Fluoro-2-{4-[1-(trifluoromethyl)cyclopropyl]phenyl}vinyl]-5-methyl-1H-pyrazol-1-yl}methyl)phenyl]cyclopropyl}methanol] |
| 1 nM | CNc1ccc(Cn2nc(/C(F)=C/c3ccc(OC(F)(F)F)cc3)cc2C)cn1 [Example 79, 5-[(3-{(Z)-1-Fluoro-2-[4-(trifluoromethoxy)phenyl]vinyl}-5-methyl-1H-pyrazol-1-yl)methyl]-N-methylpyridine-2-amine] |
| 1 nM | CCNc1ccc(Cn2nc(/C(F)=C/c3ccc(C(C)(C)C(F)(F)F)cc3)cc2C)cn1 [Example 96, N-Ethyl-5-[(3-{(Z)-1-fluoro-2-[4-(1,1,1-trifluoro-2-methylpropan-2-yl)phenyl]vinyl}-5-methyl-1H-pyrazol-1-yl)methyl]pyridine-2-amine] |
| 2 nM | Cc1cc(/C(F)=C/c2ccc(C(C)(C)C(F)(F)F)cc2)nn1Cc1cccc(CC(C)(C)O)c1 [Example 64, 1-{3-[(3-{(Z)-1-Fluoro-2-[4-(1,1,1-trifluoro-2-methylpropan-2-yl)phenyl]vinyl}-5-methyl-1H-pyrazol-1-yl)methyl]phenyl}-2-methylpropan-2-ol] |
| 0.5 nM | CC(=O)OC1(c2cccc(Cn3nc(/C(F)=C/c4ccc(C(C)(C)C(F)(F)F)cc4)cc3C)c2)CC1 [Example 44, 1-{3-[(3-{(Z)-1-Fluoro-2-[4-(1,1,1-trifluoro-2-methylpropan-2-yl)phenyl]vinyl}-5-methyl-1H-pyrazol-1-yl)methyl]phenyl}cyclopropyl acetate] |

| SMILES | IC50 |
| --- | --- |
| CNc1ccc(Cn2nc(/C(F)=C/c3ccc([Si](C)(C)C)cc3)cc2C)cn1 [Example 86, 5-[(3-{(Z)-1-Fluoro-2-[4-(trimethylsilyl)phenyl]vinyl}-5-methyl-1H-pyrazol-1-yl)methyl]-N-methylpyridine-2-amine] | 0.3 nM |
